Experimental data published in US12552783B2, “Modulators of proteolysis and associated methods of use” (Arvinas Operations, Inc., priority 2018, dated 2026).

Molecular target: KRas (Homo sapiens, UniProt P01116, G12C)
Assay: KRas degradation in NCI-H2030 cells by Western blot, normalized to GAPDH (data of Table 14)
Format: cell-based
Parameters: host or cells: NCI-H2030
Conditions: H2030 cells; for Percent Degradation at Indicated Concentration (μM): 0.3: 0.3 μM; for Percent Degradation at Indicated Concentration (μM): 1: 1 μM; for Percent Degradation at Indicated Concentration (μM): 3: 3 μM; for Dmax: NCI-H2030
In short: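 Both lines are homozygous for KRas G12C and were serum-starved for 24 h before treatment with compound at 0.3, 1 or 3 μM in 0.1% DMSO: 24 h for VHL-based compounds, 72 h for the rest. Western blot of 10 μg lysate gave KRas signal normalized to GAPDH, and percent degradation was expressed relative to the DMSO control.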

Row | SMILES | Percent Degradation at Indicated Concentration (μM): 0.3 | Percent Degradation at Indicated Concentration (μM): 1 | Percent Degradation at Indicated Concentration (μM): 3 | Dmax [%] | Percent Degradation at Indicated Concentration (μM): 0.1 (0.1 μM)
1 | CCC(=O)N1CCN(c2nc(NCCC(=O)N(C)CCOCCOCCOc3ccc4c(c3)CN(C3CCC(=O)NC3=O)C4=O)nc3c(F)c(-c4cc(O)cc5ccccc45)c(Cl)cc23)CC1 (centres unmarked) [compound 52, 3-((6-chloro-8-fluoro-7-(3-hydroxynaphthalen-1-yl)-4-(4-propionylpiperazin-1-yl)quinazolin-2-yl)amino)-N-(2-(2-(2-((2-(2,6-dioxopiperidin-3-yl)-1-oxoisoindolin-5-yl)oxy)ethoxy)ethoxy)ethyl)-N-methylpropanamide] | C (C ≤ 35) | C (C ≤ 35) | C (C ≤ 35) | ≤ 35 | 
2 | CCC(=O)N1CCN(c2nc(NCCC(=O)N(C)CCOCCOCCOCCOc3ccc4c(c3)CN(C3CCC(=O)NC3=O)C4=O)nc3c(F)c(-c4cc(O)cc5ccccc45)c(Cl)cc23)CC1 (centres unmarked) [compound 53, 3-((6-chloro-8-fluoro-7-(3-hydroxynaphthalen-1-yl)-4-(4-propionylpiperazin-1-yl)quinazolin-2-yl)amino)-N-(2-(2-(2-(2-((2-(2,6-dioxopiperidin-3-yl)-1-oxoisoindolin-5-yl)oxy)ethoxy)ethoxy)ethoxy)ethyl)-N-methylpropanamide] | C (C ≤ 35) | C (C ≤ 35) | C (C ≤ 35) | ≤ 35 | 
3 | CCC(=O)N1CCN(c2nc(NCCC(=O)N(C)CCOCCOCCOCCOCCOc3ccc4c(c3)CN(C3CCC(=O)NC3=O)C4=O)nc3c(F)c(-c4cc(O)cc5ccccc45)c(Cl)cc23)CC1 (centres unmarked) [compound 54, 3-((6-chloro-8-fluoro-7-(3-hydroxynaphthalen-1-yl)-4-(4-propionylpiperazin-1-yl)quinazolin-2-yl)amino)-N-(14-((2-(2,6-dioxopiperidin-3-yl)-1-oxoisoindolin-5-yl)oxy)-3,6,9,12-tetraoxatetradecyl)-N-methylpropanamide] | C (C ≤ 35) | C (C ≤ 35) | C (C ≤ 35) | ≤ 35 | 
4 | C=CC(=O)N1CCN(c2nc(NCCC(=O)N(C)CCNc3cccc4c3C(=O)N(C3CCC(=O)NC3=O)C4=O)nc3c(F)c(-c4cc(O)cc5ccccc45)c(Cl)cc23)CC1 (centres unmarked) [compound 55, 3-((4-(4-acryloylpiperazin-1-yl)-6-chloro-8-fluoro-7-(3-hydroxynaphthalen-1-yl)quinazolin-2-yl)amino)-N-(2-((2-(2,6-dioxopiperidin-3-yl)-1,3-dioxoisoindolin-4-yl)amino)ethyl)-N-methylpropanamide] | C (C ≤ 35) | C (C ≤ 35) |  | ≤ 35 | C (C ≤ 35)
5 | C=CC(=O)N1CCN(c2nc(NCCC(=O)N(C)CCOCCNc3cccc4c3C(=O)N(C3CCC(=O)NC3=O)C4=O)nc3c(F)c(-c4cc(O)cc5ccccc45)c(Cl)cc23)CC1 (centres unmarked) [compound 56, 3-((4-(4-acryloylpiperazin-1-yl)-6-chloro-8-fluoro-7-(3-hydroxynaphthalen-1-yl)quinazolin-2-yl)amino)-N-(2-(2-((2-(2,6-dioxopiperidin-3-yl)-1,3-dioxoisoindolin-4-yl)amino)ethoxy)ethyl)-N-methylpropanamide] | C (C ≤ 35) | C (C ≤ 35) | C (C ≤ 35) | ≤ 35 | 
